The text below walks through data of US12606561B2, “Substituted pyrazolo[1,5-a][1,3,5]triazines as CDK inhibitors” (QURIENT CO., LTD., priority 2018, dated 2026).

pIC50: −log10 of the molar value.

In experiment [1] the target is T1, CDK5/p25 (Homo sapiens, UniProt Q00535).
T1 construct: purchased Invitrogen PR8543B
Nature of the experiment: Enzymatic assay for CDK5 (LANCE Ultra kinase assay, FRET based). It counts as biochemical. Particulars: ATP at Km. An outline of the steps: (§1)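 Inhibition was measured at ATP Km with 68 nM ULight-MBP peptide and CDK2/Cyclin A ([…]) or CDK5/p25 ([…]), using 8-dose 4-fold compound dilutions from DMSO. Kinase reaction ran 60 min at 23° C, then Eu anti-phospho-MBP plus EDTA were added for another 60 min before the fluorescence read.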

In experiment [2] the target is T2, CDK7/Cyclin H/MNAT1 (Homo sapiens, UniProt P50613).
T2 construct: purchased Invitrogen PR6749B
T2 sequence (P50613 whole entry): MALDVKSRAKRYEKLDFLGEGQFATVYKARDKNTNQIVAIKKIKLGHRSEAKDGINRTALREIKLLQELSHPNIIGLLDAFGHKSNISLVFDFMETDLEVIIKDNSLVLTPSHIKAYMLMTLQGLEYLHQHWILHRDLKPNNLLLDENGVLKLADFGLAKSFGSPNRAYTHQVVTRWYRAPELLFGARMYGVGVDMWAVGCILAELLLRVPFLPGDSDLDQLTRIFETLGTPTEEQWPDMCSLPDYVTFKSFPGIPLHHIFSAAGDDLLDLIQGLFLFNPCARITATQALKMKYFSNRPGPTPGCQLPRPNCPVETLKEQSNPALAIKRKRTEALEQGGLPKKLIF
T2 sequence (P51946 whole entry partner): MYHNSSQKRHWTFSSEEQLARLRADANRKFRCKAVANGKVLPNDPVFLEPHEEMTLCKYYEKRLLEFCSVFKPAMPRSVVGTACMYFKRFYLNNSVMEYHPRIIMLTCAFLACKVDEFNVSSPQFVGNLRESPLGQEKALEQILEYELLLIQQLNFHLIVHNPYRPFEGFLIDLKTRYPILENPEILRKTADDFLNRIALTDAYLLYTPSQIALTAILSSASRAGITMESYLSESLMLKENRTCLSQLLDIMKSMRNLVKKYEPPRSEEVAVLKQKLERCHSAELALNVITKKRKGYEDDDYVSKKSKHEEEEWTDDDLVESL
T2 sequence (P51948 whole entry partner): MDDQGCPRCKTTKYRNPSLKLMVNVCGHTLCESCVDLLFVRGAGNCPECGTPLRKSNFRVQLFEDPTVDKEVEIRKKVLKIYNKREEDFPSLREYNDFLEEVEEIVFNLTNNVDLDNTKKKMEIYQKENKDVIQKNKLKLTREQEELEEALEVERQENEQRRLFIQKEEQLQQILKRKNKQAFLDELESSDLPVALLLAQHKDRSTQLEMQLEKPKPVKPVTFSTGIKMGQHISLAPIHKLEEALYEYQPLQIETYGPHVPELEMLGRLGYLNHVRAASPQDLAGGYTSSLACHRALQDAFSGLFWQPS
As to the kind of experiment: Enzymatic assay for CDK7 (LANCE Ultra kinase assay, FRET based). It is filed as biochemical. Particulars: for pIC50: ATP at Km. Summed up:
(§2)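 Purified CDK7/Cyclin H/MNAT1 or CDK1/Cyclin B complexes were tested for inhibition at Km ATP. Phosphorylation of a ULight-labelled peptide was detected by FRET with a Europium anti-phospho antibody (LANCE Ultra).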

For experiment [3], the system named is A2780. Nature of the experiment: A2780 viability assay (CellTiter-Glo, 72 hours). It is filed as cell-based. Particulars: Homo sapiens; A2780 cells. An outline of the steps:
(§3)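 CellTiter-Glo luminescence measured viability after 72 h of compound exposure (0.0015–10 uM; DMSO below 0.1%) at 37 °C, 5% CO2, run in duplicate. Dosing began 24 h post-seeding in RPMI-1640/10% FBS at 1×10^4 (MV4-11), 5×10^3 (OVCAR-3) or 1×10^3 (A2780) cells/well.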
A general note: In ATP-based viability assays light output follows the ATP content of the culture.

Experiment [4] has as its target T3, CDK1/Cyclin B (Homo sapiens, UniProt P06493).
T3 construct: purchased Invitrogen PR4768C
Nature of the experiment: Enzymatic assay for CDK1 (LANCE Ultra kinase assay, FRET based). It counts as biochemical. Particulars: ATP at Km; read-out: CDK1 enzymatic activity IC50. An outline of the steps: as §2
(Time-resolved FRET reads energy transfer from a long-lived donor to a nearby acceptor.)

In experiment [5] the target is T4, CDK2/Cyclin A (Homo sapiens, UniProt P24941).
T4 construct: purchased Invitrogen PV6290
Nature of the experiment: Enzymatic assay for CDK2 (LANCE Ultra kinase assay, FRET based). It counts as biochemical. Particulars: ATP at Km. Summed up:
as §1

The subject of experiment [6] is OVCAR-3. Nature of the experiment: OVCAR-3 viability assay (CellTiter-Glo, 72 hours). Particulars: Homo sapiens; OVCAR-3 cells. It is filed as cell-based. Summed up: as §3

T3 sequence (P06493 whole entry): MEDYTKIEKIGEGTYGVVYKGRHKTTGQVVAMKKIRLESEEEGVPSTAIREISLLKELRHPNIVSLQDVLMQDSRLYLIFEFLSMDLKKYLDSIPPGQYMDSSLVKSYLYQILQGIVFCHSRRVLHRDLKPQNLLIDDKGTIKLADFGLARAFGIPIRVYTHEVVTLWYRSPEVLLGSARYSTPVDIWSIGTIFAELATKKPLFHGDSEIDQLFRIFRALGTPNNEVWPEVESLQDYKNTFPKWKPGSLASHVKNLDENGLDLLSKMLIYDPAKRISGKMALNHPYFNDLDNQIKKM
T3 sequence (P14635 whole entry partner): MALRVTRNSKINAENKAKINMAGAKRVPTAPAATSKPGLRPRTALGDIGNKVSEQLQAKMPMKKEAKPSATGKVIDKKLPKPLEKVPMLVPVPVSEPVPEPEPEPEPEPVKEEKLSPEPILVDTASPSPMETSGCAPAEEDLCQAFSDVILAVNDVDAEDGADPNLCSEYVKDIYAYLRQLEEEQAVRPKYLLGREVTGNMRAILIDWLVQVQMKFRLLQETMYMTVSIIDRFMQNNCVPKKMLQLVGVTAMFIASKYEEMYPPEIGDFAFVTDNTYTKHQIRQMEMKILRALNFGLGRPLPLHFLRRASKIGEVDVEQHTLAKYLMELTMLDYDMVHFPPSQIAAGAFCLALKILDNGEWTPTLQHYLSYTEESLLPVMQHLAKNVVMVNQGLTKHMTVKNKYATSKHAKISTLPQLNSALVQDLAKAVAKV
T1 sequence (Q00535 whole entry): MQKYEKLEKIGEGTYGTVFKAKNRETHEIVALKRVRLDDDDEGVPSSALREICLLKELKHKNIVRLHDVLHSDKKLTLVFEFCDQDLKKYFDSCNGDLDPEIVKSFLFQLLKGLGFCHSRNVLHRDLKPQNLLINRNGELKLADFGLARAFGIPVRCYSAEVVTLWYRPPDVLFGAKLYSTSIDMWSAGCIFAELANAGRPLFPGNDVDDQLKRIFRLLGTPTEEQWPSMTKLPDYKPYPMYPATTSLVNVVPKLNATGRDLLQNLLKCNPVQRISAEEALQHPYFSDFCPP
T1 sequence (Q15078 99-307 partner limits assumed): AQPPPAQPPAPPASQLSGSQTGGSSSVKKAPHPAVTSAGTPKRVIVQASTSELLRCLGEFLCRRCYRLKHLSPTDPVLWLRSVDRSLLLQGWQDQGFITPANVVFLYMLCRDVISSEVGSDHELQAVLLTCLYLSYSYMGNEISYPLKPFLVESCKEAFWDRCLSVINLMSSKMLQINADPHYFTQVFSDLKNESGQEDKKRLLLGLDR

As to `CC(C)c1cnn2c(NCc3ccccc3-c3nccc4cc(NC(=O)/C=C/CN(C)C)ccc34)nc(N3C[C@H]4CC[C@@H](C3)O4)nc12` [Compound 102], the pIC50 – broadly, the negative decadic logarithm of the IC50, by convention in mol/L – in experiment [1] is under 6.00; in experiment [2], 6.00 to 7.00; in experiment [3], over 6.00; in experiment [4], under 6.00; in experiment [5], under 6.00; in experiment [6], over 6.00. The “CDK1/CDK7: Selectivity of CDK7 inhibition over CDK1 inhibition” value in experiment [2] is “B (B indicates 50 < [fold] ≤ 500)”. Besides, the “CDK2/CDK7: Selectivity of CDK7 inhibition over CDK2 inhibition” value in experiment [2] was “B (B indicates 50 < [fold] ≤ 500)”. Further, the “CDK5/CDK7: Selectivity of CDK7 inhibition over CDK5 inhibition” value in experiment [2] is “B (B indicates 50 < [fold] ≤ 500)”.

`CC(C)c1cnn2c(NCc3ccccc3-c3nccc4cc(NC(=O)/C=C/CN(C)C)ccc34)nc(N3CCC4(CCN(C)CC4)CC3)nc12` [Compound 128]: the pIC50 is under 6.00 in experiment [1]; over 7.00 in experiment [2]; over 6.00 in experiment [3]; under 6.00 in experiment [4]; under 6.00 in experiment [5]; over 6.00 in experiment [6]. Also, in experiment [2], the “CDK1/CDK7: Selectivity of CDK7 inhibition over CDK1 inhibition” value is “A (A indicates [fold] > 500)”. The “CDK2/CDK7: Selectivity of CDK7 inhibition over CDK2 inhibition” value in experiment [2] is “A (A indicates [fold] > 500)”. Further, in experiment [2], the “CDK5/CDK7: Selectivity of CDK7 inhibition over CDK5 inhibition” value was “A (A indicates [fold] > 500)”.

In the case of `CO[C@H]1CC[C@H](Nc2nc(NCc3c(C)cccc3-c3ccc4cccc(NC(=O)/C=C/CN(C)C)c4n3)n3ncc(C(C)C)c3n2)CC1` [Compound 127], the pIC50 in experiment [1] was under 6.00; in experiment [2], 6.00 to 7.00; in experiment [3], over 6.00; in experiment [4], under 6.00; in experiment [5], under 6.00; in experiment [6], over 6.00. Moreover, the “CDK1/CDK7: Selectivity of CDK7 inhibition over CDK1 inhibition” value in experiment [2] is “B (B indicates 50 < [fold] ≤ 500)”. In addition, the “CDK2/CDK7: Selectivity of CDK7 inhibition over CDK2 inhibition” value in experiment [2] was “B (B indicates 50 < [fold] ≤ 500)”. Further, in experiment [2], the “CDK5/CDK7: Selectivity of CDK7 inhibition over CDK5 inhibition” value was “B (B indicates 50 < [fold] ≤ 500)”.

In the case of `C=CC(=O)Nc1ccc2c(-c3ccccc3CNc3nc(N[C@H]4CC[C@H](OC)CC4)nc4c(C(C)C)cnn34)nccc2c1` [Compound 95], the pIC50 was under 6.00 in experiment [1]; over 7.00 in experiment [2]; over 6.00 in experiment [3]; under 6.00 in experiment [4]; under 6.00 in experiment [5]; over 6.00 in experiment [6]. Besides, the “CDK1/CDK7: Selectivity of CDK7 inhibition over CDK1 inhibition” value in experiment [2] was “A (A indicates [fold] > 500)”. For the same compound, the “CDK2/CDK7: Selectivity of CDK7 inhibition over CDK2 inhibition” value in experiment [2] was “A (A indicates [fold] > 500)”. In addition, in experiment [2], the “CDK5/CDK7: Selectivity of CDK7 inhibition over CDK5 inhibition” value was “A (A indicates [fold] > 500)”.

Turning to `C=C(F)C(=O)Nc1ccc2c(-c3ccccc3CNc3nc(NC[C@H]4CCN(CC)C[C@@H]4O)nc4c(C(C)C)cnn34)nccc2c1` [Compound 169], the pIC50 was under 6.00 in experiment [1]; over 7.00 in experiment [2]; over 6.00 in experiment [3]; under 6.00 in experiment [4]; under 6.00 in experiment [5]; over 6.00 in experiment [6]. Moreover, the “CDK1/CDK7: Selectivity of CDK7 inhibition over CDK1 inhibition” value in experiment [2] was “B (B indicates 50 < [fold] ≤ 500)”. For the same compound, the “CDK2/CDK7: Selectivity of CDK7 inhibition over CDK2 inhibition” value in experiment [2] was “B (B indicates 50 < [fold] ≤ 500)”. In experiment [2], the “CDK5/CDK7: Selectivity of CDK7 inhibition over CDK5 inhibition” value was “B (B indicates 50 < [fold] ≤ 500)”.

Take `C=C(F)C(=O)Nc1ccc2c(-c3ccccc3CNc3nc(N4CCC(OCC)CC4)nc4c(C(C)C)cnn34)nccc2c1` [Compound 85]: the pIC50 in experiment [1] is under 6.00; in experiment [2], 6.00 to 7.00; in experiment [3], over 6.00; in experiment [4] it was under 6.00; in experiment [5] it was under 6.00; in experiment [6], over 6.00. In experiment [2], the “CDK1/CDK7: Selectivity of CDK7 inhibition over CDK1 inhibition” value was “B (B indicates 50 < [fold] ≤ 500)”. Further, the “CDK2/CDK7: Selectivity of CDK7 inhibition over CDK2 inhibition” value in experiment [2] is “B (B indicates 50 < [fold] ≤ 500)”. Further, the “CDK5/CDK7: Selectivity of CDK7 inhibition over CDK5 inhibition” value in experiment [2] was “B (B indicates 50 < [fold] ≤ 500)”.

`CC(C)c1cnn2c(NCc3ccccc3-c3nccc4cc(NC(=O)/C=C/CN5CCOCC5)ccc34)nc(NC3CCC(C)(C)NC3)nc12` (stereo not drawn) [Compound 180]: the pIC50 is under 6.00 in experiment [1]; over 7.00 in experiment [2]; over 6.00 in experiment [3]; under 6.00 in experiment [4]; under 6.00 in experiment [5]; over 6.00 in experiment [6]. Moreover, the “CDK1/CDK7: Selectivity of CDK7 inhibition over CDK1 inhibition” value in experiment [2] is “A (A indicates [fold] > 500)”. In addition, the “CDK2/CDK7: Selectivity of CDK7 inhibition over CDK2 inhibition” value in experiment [2] was “A (A indicates [fold] > 500)”. Besides, the “CDK5/CDK7: Selectivity of CDK7 inhibition over CDK5 inhibition” value in experiment [2] is “A (A indicates [fold] > 500)”.

For `C=C(F)C(=O)Nc1ccc2c(-c3ccccc3CNc3nc(NC[C@H]4CCNC[C@H]4O)nc4c(C(C)C)cnn34)nccc2c1` [Compound 158], the pIC50 is under 6.00 in experiment [1]; over 7.00 in experiment [2]; over 6.00 in experiment [3]; under 6.00 in experiment [4]; under 6.00 in experiment [5]; over 6.00 in experiment [6]. Besides, the “CDK1/CDK7: Selectivity of CDK7 inhibition over CDK1 inhibition” value in experiment [2] is “A (A indicates [fold] > 500)”. The “CDK2/CDK7: Selectivity of CDK7 inhibition over CDK2 inhibition” value in experiment [2] is “A (A indicates [fold] > 500)”. Moreover, the “CDK5/CDK7: Selectivity of CDK7 inhibition over CDK5 inhibition” value in experiment [2] was “A (A indicates [fold] > 500)”.

With `C=CC(=O)Nc1ccc2c(-c3ccccc3CNc3cc(N[C@H]4CC[C@H](OC)CC4)nc4c(C(C)C)cnn34)nccc2c1` [Compound 116], the pIC50 is under 6.00 in experiment [1]; over 7.00 in experiment [2]; over 6.00 in experiment [3]; under 6.00 in experiment [4]; under 6.00 in experiment [5]; over 6.00 in experiment [6]. Also, the “CDK1/CDK7: Selectivity of CDK7 inhibition over CDK1 inhibition” value in experiment [2] is “A (A indicates [fold] > 500)”. Besides, the “CDK2/CDK7: Selectivity of CDK7 inhibition over CDK2 inhibition” value in experiment [2] was “A (A indicates [fold] > 500)”. The “CDK5/CDK7: Selectivity of CDK7 inhibition over CDK5 inhibition” value in experiment [2] was “A (A indicates [fold] > 500)”.

For `CC(C)c1cnn2c(NCc3ccccc3-c3nccc4cc(NC(=O)/C=C/CN(C)C)ccc34)nc(N3CC4(COC4)C3)nc12` [Compound 108], the pIC50 in experiment [1] is under 6.00; in experiment [2], 6.00 to 7.00; in experiment [3], over 6.00; in experiment [4] it was under 6.00; in experiment [5], under 6.00; in experiment [6], over 6.00. The “CDK1/CDK7: Selectivity of CDK7 inhibition over CDK1 inhibition” value in experiment [2] is “C (C indicates [fold] ≤ 50)”. Also, the “CDK2/CDK7: Selectivity of CDK7 inhibition over CDK2 inhibition” value in experiment [2] is “C (C indicates [fold] ≤ 50)”. For the same compound, the “CDK5/CDK7: Selectivity of CDK7 inhibition over CDK5 inhibition” value in experiment [2] was “C (C indicates [fold] ≤ 50)”.

`CC(C)c1cnn2c(NCc3ccccc3-c3nccc4cc(NC(=O)/C=C/CN(C)C)ccc34)nc(NC3CCS(=O)(=O)CC3)nc12` [Compound 107]: the negative-log IC50 (pIC50) was under 6.00 in experiment [1]; 6.00 to 7.00 in experiment [2]; over 6.00 in experiment [3]; under 6.00 in experiment [4]; under 6.00 in experiment [5]; over 6.00 in experiment [6]. For the same compound, in experiment [2], the “CDK1/CDK7: Selectivity of CDK7 inhibition over CDK1 inhibition” value was “B (B indicates 50 < [fold] ≤ 500)”. In addition, the “CDK2/CDK7: Selectivity of CDK7 inhibition over CDK2 inhibition” value in experiment [2] is “B (B indicates 50 < [fold] ≤ 500)”. The “CDK5/CDK7: Selectivity of CDK7 inhibition over CDK5 inhibition” value in experiment [2] was “B (B indicates 50 < [fold] ≤ 500)”.
